Assay results taken from US20230126893A1, “[(1,4,5-TRISUBSTITUTED-1H-PYRAZOL-3-YL)SULFANYL]ACETIC ACID DERIVATIVES, SALTS THEREOF, AND USE THEREOF AS ACTIVE HERBICIDAL INGREDIENTS” (BAYER AKTIENGESELLSCHAFT, priority 2020, published 2023).

How the values were obtained:
Assay type in all cases: in vivo
Echinochloa crus-galli [1] = experiment: Post-emergence herbicidal effect against ECHCG; conditions: 1280 g/ha, visual score after about 3 weeks, 100% = plants have died, 0% = like control plants
Summary of the method: (§1)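 Percent herbicidal effect, judged visually against untreated plants about 3 weeks after treatment, where 100% means dead plants. Treatment was a foliar spray of WP or EC formulations (600 to 800 l/ha water, 0.2% wetting agent) on one-leaf-stage plants raised in sandy loam.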

Bassia scoparia [2] = experiment: Pre-emergence herbicidal effect against KCHSC; conditions: 1280 g/ha, visual score after 3 weeks, 100% = plants have died, 0% = like control plants
From the text: 1. Pre-emergence herbicidal effect and crop plant compatibility Seeds of monocotyledonous and dicotyledonous weed plants and crop plants are laid out in sandy loam soil in wood-fibre pots and covered with soil. The compounds of the invention, formulated in the form of wettable powders (WP) or as emulsion concentrates (EC), are then applied to the surface of the covering soil as aqueous suspension or emulsion at a water application rate equating to 600 to 800 L/ha with addition of 0.2% wetting agent. After the treatment, the pots are placed in a greenhouse and kept under good growth conditions for the trial plants. The damage to the test plants is scored visually after a test period of 3 weeks by comparison with untreated controls (herbicidal activity in percent (%): 100% activity=the plants have died, 0% activity=like control plants). [table]

Stellaria media [3] = experiment: Pre-emergence herbicidal effect against STEME; conditions: 1280 g/ha, visual score after 3 weeks, 100% = plants have died, 0% = like control plants
Summary of the method: (§2)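 Percent herbicidal activity (100% = dead, 0% = as control) was rated by eye 3 weeks post-application in greenhouse pots of sandy loam, with treatment sprayed onto the covering soil before emergence.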

Veronica persica [4] = experiment: Post-emergence herbicidal effect against VERPE; conditions: 1280 g/ha, visual assessment about 3 weeks after treatment, 100% = plants have died, 0% = like control plants
Summary of the method: as §1

Setaria viridis [5] = experiment: Pre-emergence herbicidal effect against SETVI; conditions: 1280 g/ha, visual score after 3 weeks, 100% = plants have died, 0% = like control plants
Summary of the method: as §2

[6] = test system: Tripleurospermum inodorum; experiment: Pre-emergence herbicidal effect against MATIN; conditions: 1280 g/ha, visual score after 3 weeks, 100% = plants have died, 0% = like control plants
Summary of the method: as §2

Alopecurus myosuroides [7] = experiment: Post-emergence herbicidal effect against ALOMY; conditions: 1280 g/ha, visual score after about 3 weeks, 100% = plants have died, 0% = like control plants
Summary of the method: as §1

Alopecurus myosuroides [8] = experiment: Pre-emergence herbicidal effect against ALOMY; conditions: 1280 g/ha, visual score after 3 weeks, 100% = plants have died, 0% = like control plants
Summary of the method: as §2

Digitaria sanguinalis [9] = experiment: Post-emergence herbicidal effect against DIGSA; conditions: 1280 g/ha, visual score after about 3 weeks, 100% = plants have died, 0% = like control plants
Summary of the method: as §1

Echinochloa crus-galli [10] = experiment: Pre-emergence herbicidal effect against ECHCG; conditions: 1280 g/ha, visual score after 3 weeks, 100% = plants have died, 0% = like control plants
Summary of the method: as §2

Poa annua [11] = experiment: Pre-emergence herbicidal effect against POAAN; conditions: 1280 g/ha, visual score after 3 weeks, 100% = plants have died, 0% = like control plants
Summary of the method: as §2

[12] = test system: Tripleurospermum inodorum; experiment: Post-emergence herbicidal effect against MATIN; conditions: 1280 g/ha, visual assessment about 3 weeks after treatment, 100% = plants have died, 0% = like control plants
Summary of the method: as §1

Bassia scoparia [13] = experiment: Post-emergence herbicidal effect against KCHSC; conditions: 1280 g/ha, visual assessment about 3 weeks after treatment, 100% = plants have died, 0% = like control plants
Summary of the method: as §1

Stellaria media [14] = experiment: Post-emergence herbicidal effect against STEME; conditions: 1280 g/ha, visual assessment about 3 weeks after treatment, 100% = plants have died, 0% = like control plants
Summary of the method: as §1

Digitaria sanguinalis [15] = experiment: Pre-emergence herbicidal effect against DIGSA; conditions: 1280 g/ha, visual score after 3 weeks, 100% = plants have died, 0% = like control plants
Summary of the method: as §2

Poa annua [16] = experiment: Post-emergence herbicidal effect against POAAN; conditions: 1280 g/ha, visual assessment about 3 weeks after treatment, 100% = plants have died, 0% = like control plants
Summary of the method: as §1

Veronica persica [17] = experiment: Pre-emergence herbicidal effect against VERPE; conditions: 1280 g/ha, visual score after 3 weeks, 100% = plants have died, 0% = like control plants
Summary of the method: as §2

Lolium rigidum = experiment: Pre-emergence herbicidal effect against LOLRI; conditions: 1280 g/ha, visual score after 3 weeks, 100% = plants have died, 0% = like control plants
Summary of the method: as §2

Abutylon threophrasti = experiment: Post-emergence herbicidal effect against ABUTH; conditions: 1280 g/ha, visual assessment about 3 weeks after treatment, 100% = plants have died, 0% = like control plants
Summary of the method: as §1

Setaria viridis [18] = experiment: Post-emergence herbicidal effect against SETVI; conditions: 1280 g/ha, visual assessment about 3 weeks after treatment, 100% = plants have died, 0% = like control plants
Summary of the method: as §1

Structure (SMILES)	Post-emergence action against ECHCG (Echinochloa crus-galli [1])	Pre-emergence action against KCHSC (Bassia scoparia [2])	Pre-emergence action against STEME (Stellaria media [3])	Post-emergence action against VERPE (Veronica persica [4])	Pre-emergence action against SETVI (Setaria viridis [5])	Pre-emergence action against MATIN [6]	Post-emergence action against ALOMY (Alopecurus myosuroides [7])	Pre-emergence action against ALOMY (Alopecurus myosuroides [8])	Post-emergence action against DIGSA (Digitaria sanguinalis [9])	Pre-emergence action against ECHCG (Echinochloa crus-galli [10])	Pre-emergence action against POAAN (Poa annua [11])	Post-emergence action against MATIN [12]	Post-emergence action against KCHSC (Bassia scoparia [13])	Post-emergence action against STEME (Stellaria media [14])	Pre-emergence action against DIGSA (Digitaria sanguinalis [15])	Post-emergence action against POAAN (Poa annua [16])	Pre-emergence action against VERPE (Veronica persica [17])	Pre-emergence action against LOLRI (Lolium rigidum)	Post-emergence action against ABUTH (Abutylon threophrasti)	Post-emergence action against SETVI (Setaria viridis [18])
CCOC(=O)CSc1nn(-c2ccc(F)cc2F)c(-c2ccc(F)cc2)c1Br [Example I-016]	90%	100%	100%	90%	100%	100%	100%	90%	90%	100%	100%	90%	90%	90%	100%	90%	100%	90%	–	–
COC(=O)CNC(=O)CSc1nn(-c2ccccc2F)c(-c2cccnc2)c1Br [VII-007]	90%	90%	90%	90%	100%	90%	90%	90%	–	100%	100%	90%	90%	90%	–	90%	90%	–	90%	90%
COC(=O)CN(C)C(=O)CSc1nn(-c2ccccc2F)c(-c2ccc(F)c(F)c2)c1Cl [VII-002]	–	90%	100%	90%	100%	–	–	–	–	100%	–	90%	–	90%	–	100%	90%	–	–	90%
